The text below walks through data of US4001419A, “1'-Substituted xanthene-9-spiro-4'-piperidine derivatives” (Imperial Chemical Industries Limited, priority 1974, dated 1977).

A short description of one data set: LD50 (acute toxicity). On the set-up: species or system mice. The settings on record: mouse, in vivo; intravenous; read-out: LD50 when dosed intravenously. On the procedure:
All the compounds exemplified in this specification are active on at least one of these standard tests at a dose of equal to or less than 100 mg./kg. of the free base. […] Other LD50 values for compounds of the invention when dosed intravenously are as follows: […]
As to `CSc1ccc2c(c1)Oc1c(OC(C)=O)cccc1C21CCN(C)CC1` [4-OAc H 6-SMe H], the LD50 is over 40 mg/kg.

For `CC(=O)Oc1cccc2c1Oc1cc(Cl)ccc1C21CCN(C)CC1` [4-OAc H 6-Cl H], the LD50 was over 35 mg/kg.

In the case of `CN1CCC2(CC1)c1cccc(O)c1Oc1cccc(F)c12` [4-OH H 8-F H], the median lethal dose (LD50) is over 20 mg/kg.

For `COc1ccc2c(c1)Oc1c(OC(C)=O)cccc1C21CCN(C)CC1` [4-OAc H 6-OMe H], the 50% lethal dose (LD50) is over 20 mg/kg.

In the case of `CN1CCC2(CC1)c1ccc(Cl)cc1Oc1c(O)cccc12` [6-chloro-4-hydroxy-1'-methylxanthene-9-spiro-4'-piperidine], the 50% lethal dose (LD50) was over 25 mg/kg.

The data set is the same for the next values; noted with them: mouse, in vivo; mice, oral; read-out: oral LD50.
Take `CN1CCC2(CC1)c1ccc(Cl)cc1Oc1c(O)cccc12` [6-chloro-4-hydroxy-1'-methylxanthene-9-spiro-4'-piperidine]: the LD50 was over 200 mg/kg.

In general, LD50 refers to the dose at which mortality reaches 50%.
